According to ChEMBL document CHEMBL1158843, “Development of a radiochemical cyclooxygenase-1 and -2 in vitro assay for identification of natural products as inhibitors of prostaglandin biosynthesis” (J Nat Prod, 1998):

Molecular target: T1, Prostaglandin G/H synthase 1 (Bos taurus) (UniProt O62664)
T1 sequence (whole entry): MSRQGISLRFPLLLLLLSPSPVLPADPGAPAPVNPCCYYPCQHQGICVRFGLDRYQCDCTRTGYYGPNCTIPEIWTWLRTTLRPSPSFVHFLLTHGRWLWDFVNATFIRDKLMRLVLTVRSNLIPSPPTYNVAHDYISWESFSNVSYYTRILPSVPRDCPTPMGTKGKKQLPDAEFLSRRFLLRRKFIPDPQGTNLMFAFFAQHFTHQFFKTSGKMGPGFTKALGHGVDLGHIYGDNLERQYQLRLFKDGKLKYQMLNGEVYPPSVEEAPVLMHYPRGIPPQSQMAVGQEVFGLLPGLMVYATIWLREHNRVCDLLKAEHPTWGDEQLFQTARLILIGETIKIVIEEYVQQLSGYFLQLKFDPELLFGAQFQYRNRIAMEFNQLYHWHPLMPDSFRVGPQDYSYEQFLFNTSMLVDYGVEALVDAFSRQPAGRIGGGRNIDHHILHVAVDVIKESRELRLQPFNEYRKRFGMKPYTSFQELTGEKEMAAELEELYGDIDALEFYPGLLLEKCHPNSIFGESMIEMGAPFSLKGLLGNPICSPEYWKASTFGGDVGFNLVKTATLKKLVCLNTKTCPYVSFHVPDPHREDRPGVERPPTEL
Test: Inhibition of bovine seminal microsomal COX1 assessed as PGE2 production at 100 uM preincubated for 10 mins

CS(=O)(=O)Nc1ccc([N+](=O)[O-])cc1OC1CCCCC1 was tested, and the inhibition was 9%.
